The assay concerns BT20 Cell. Description: Cancer Cell Lysate Total L-Glutamate Assay. The settings on record: total L-glutamate in cell lysate, BT20 cells, 2 hour incubation with test compound. The class given is cell-based. The protocol:
Cancer Cell Lysate Total L-Glutamate Assay
Cancer cell lines (BT20, HCT116, SKOV3, HCC70, SUM149, MDA-MB-231, etc.) were plated in 96 well plates and were used for the total L-glutamate assay when the monolayer was ca. 80% confluent. The media was changed and fresh media containing L-glutamine was added to the 96 well plates, just before incubation of the cells with test compound. The test compound was diluted in 100% DMSO using a two-fold or three-fold serial dilution. Small volumes of the dilutions of test compound were added to the 96 well plates so the final DMSO concentration was 0.5% v/v in the cell culture medium. The cells were incubated at 37° C., 5% CO2, and 95% air for 2 hours. Following the 2 hour incubation, the cells were washed with water 2 times. After the last water wash, 100 μL of 50 mM Tris-HCl pH 7.4 and 0.01% Tween-20 was added to each well and the plate was frozen at −80° C. The 96 well plate was frozen and thawed a total of 3 times and then sonicated for 5 min at 4° C. in a bath sonicator. Following sonication, the 96 well plate was centrifuged for 5 min at 1000 rpm and 10 μL of the supernatant was transferred to a 384 well assay plate.
Total L-glutamate (L-glutamic acid) in the cell lysis supernatant was detected using glutamate oxidase, horseradish peroxidase and Amplex Red reagent (10-acetyl-3,7-dihydroxy phenoxazine, Invitrogen # A22177). In this assay, L-glutamate was oxidized by glutamate oxidase to produce alpha-ketoglutarate (2-oxopentane dioic acid), NH3 and H202. The H2O2 (hydrogen peroxide) was used by horseradish peroxidase (HRP) to oxidize the Amplex Red Reagent to resorufin which is a fluorescent molecule. When resorufin is excited with light with a wavelength 530-560 nm, it emits light at approximately 585 nm. For detection of total L-glutamate in 10 μL of lysate, 15 μL of an enzyme mixture was added to each well of the 384 well assay plate. The enzyme mixture consisted of 50 mM Tris-HCl pH 7.4, 0.01% Tween-20, 50 μM Amplex Red reagent (final concentration), 0.04 U/mL L-glutamate oxidase (final concentration), and 0.125 U/mL HRP (final concentration). The 384 well assay plate was incubated at room temperature for 5 min and then the fluorescence intensity of each well was measured at 585 nm using a 530-560 nm excitation wavelength in a plate based fluorimeter such as an LJL Analyst or a Tecan Infinite plate reader. Standard curves were constructed for this assay using dilutions of a L-glutamate standard. IC50 were calculated by plotting the relative fluorescent units vs log of the inhibitor concentration and fitting the data to the four parameter logistic equation.
Reference: Chapman J. and Zhou M. (1999) Microplate-based fluorometric methods for the enzymatic determination of I-glutamate: application in measuring I-glutamate in food samples. Analytica Chim Acta 402:47-52.

pIC50: −log10 of the molar value.

Compound `Cn1ccc(CC(=O)Nc2nnc([C@H]3CC4(C[C@H](c5nnc(NC(=O)Cc6ccn(C)n6)s5)C4)C3)s2)n1` (some centres unmarked) [Example 97, N,N′-(spiro[3.3]heptane-2,6-diyldi-1,3,4-thiadiazole-5,2-diyl)bis[2-(1-methyl-1H-pyrazol-3-yl)acetamide]] gave a pIC50 of 8.57. For the setting “Homo sapiens, BT-20, 2 h”, `CC(=O)Nc1nnc(C[C@H]2CC[C@@H](c3nnc(NC(=O)Cc4ccccc4)s3)C2)s1` (single isomer, unassigned) [Example 45, N-{5-[(cis)-3-{[5-(acetylamino)-1,3,4-thiadiazol-2-yl]methyl}cyclopentyl]-1,3,4-thiadiazol-2-yl}-2-phenylacetamide] showed a pIC50 of 6.53. With `CC(=O)Nc1nnc(C2CC[C@H](Cc3nnc(NC(=O)Cc4ccccn4)s3)C2)s1` (single isomer, unassigned) [Example 19, N-[5-({(cis)-3-[5-(acetylamino)-1,3,4-thiadiazol-2-yl]cyclopentyl}methyl)-1,3,4-thiadiazol-2-yl]-2-(pyridin-2-yl)acetamide], for the setting “Homo sapiens, BT-20, 2 h”, the negative-log IC50 (pIC50) is 5.83. Still for that read-out and setting: as for `COCCC(=O)Nc1nnc([C@@H]2CC[C@H](Cc3ccc(NC(=O)Cc4ccccn4)nn3)C2)s1` (single isomer, unassigned) [Example 121, 3-methoxy-N-{5-[(cis)-3-({6-[(pyridin-2-ylacetyl)amino]pyridazin-3-yl}methyl)cyclopentyl]-1,3,4-thiadiazol-2-yl}propanamide], the figure is 8.40; as for `CC(=O)Nc1nnc(C2CCC(Cc3nnc(N)s3)C2)s1` (racemic) [Example 42, (rac)-N-(5-{(cis)-3-[(5-amino-1,3,4-thiadiazol-2-yl)methyl]cyclopentyl}-1,3,4-thiadiazol-2-yl)acetamide], 5.62; as for `CC(=O)Nc1ccc(C[C@@H]2CC[C@H](c3nnc(NC(=O)Cc4ccccn4)s3)C2)nn1` (single isomer, unassigned) [Example 69, N-{5-[(cis)-3-{[6-(acetylamino)pyridazin-3-yl]methyl}cyclopentyl]-1,3,4-thiadiazol-2-yl}-2-(pyridin-2-yl)acetamide], 8.60. `CCC(=O)Nc1ccc(C[C@H]2CC[C@@H](c3nnc(NC(=O)Cc4ccn(C)n4)s3)C2)nn1` (single isomer, unassigned) [Example 91, N-(6-{[(cis)-3-(5-{[(1-methyl-1H-pyrazol-3-yl)acetyl]amino}-1,3,4-thiadiazol-2-yl)cyclopentyl]methyl}pyridazin-3-yl)propanamide] showed a pIC50 (Homo sapiens, BT-20, 2 h) of 8.82. As for `O=C(Cc1ccccn1)Nc1ccc(CC2CCC(c3nnc(NC(=O)C[C@H]4CCCO4)s3)C2)nn1` (mixture of isomers) [Example 129, (rac)-2-(pyridin-2-yl)-N-(6-{[(cis)-3-(5-{[(2R)-tetrahydrofuran-2-ylacetyl]amino}-1,3,4-thiadiazol-2-yl)cyclopentyl]methyl}pyridazin-3-yl)acetamide], where the note is “Homo sapiens, BT-20, 2 h”, the negative logarithm of the IC50 (pIC50) is 8.66. For the setting “Homo sapiens, BT-20, 2 h”, `O=C(Cc1ccccn1)Nc1ccc(C2CC3(C2)CC(c2ccc(NC(=O)Cc4ccccn4)nn2)C3)nn1` (racemic) [Example 25, N,N′-(spiro[3.3]heptane-2,6-diyldipyridazine-6,3-diyl)bis[2-(pyridin-2-yl)acetamide]] had a pIC50 of 9.00. This pIC50 lies 0.34 log units higher than the previous one. Turning to `C[C@H](C(=O)Nc1nnc(C[C@H]2CC[C@@H](c3nnc(NC(=O)[C@H](C)c4cccnc4)s3)C2)s1)c1cccnc1` (single isomer, unassigned) [Example 34, 2-(pyridin-3-yl)-N-(5-{[(cis)-3-(5-{[2-(pyridin-3-yl)propanoyl]amino}-1,3,4-thiadiazol-2-yl)cyclopentyl]methyl}-1,3,4-thiadiazol-2-yl)propanamide], where the note is “Homo sapiens, BT-20, 2 h”, the pIC50 is 6.03. Against the preceding compound, the pIC50 is 2.97 log units lower. Same read-out and setting: as for `Cn1cnc(CC(=O)Nc2nnc([C@H]3CC[C@@H](Cc4ccc(NC(=O)Cc5ccccn5)nn4)C3)s2)c1` (relative stereo) [Example 128, 2-(1-methyl-1H-imidazol-4-yl)-N-{5-[(cis)-3-({6-[(pyridin-2-ylacetyl)amino]pyridazin-3-yl}methyl)cyclopentyl]-1,3,4-thiadiazol-2-yl}acetamide], the figure is 8.70.

By pIC50 is commonly meant −log10 of the IC50, conventionally taken in molar units. Low values mean a large IC50, high ones a small IC50.

These data come from patent US10676471B2, “Cycloalkyl-linked diheterocycle derivatives” (Pfizer Inc., priority 2014, dated 2020).
